PubChem BioAssay (NCI)
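Growth conditions: 96-well plates. Treatment: test compound, 48 hours, 5 concentrations. Analysis: linear interpolation between bracketing concentrations; unreached endpoints set to highest concentration. GI50 is the concentration that inhibits growth by half. TGI is the concentration that stops growth completely.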

What was measured:
Test in all cases: growth of human tumour cells (NCI), 48 h
SW-620 colon = tested on: SW-620 colon
OVCAR-8 ovarian = tested on: OVCAR-8 ovarian
HCT-15 colon = tested on: HCT-15 colon
786-0 renal = tested on: 786-0 renal
RXF 393 renal = tested on: RXF 393 renal
MOLT-4 leukemia = tested on: MOLT-4 leukemia
K-562 leukemia = tested on: K-562 leukemia
HOP-62 NSCLC = tested on: HOP-62 NSCLC
SF-539 CNS = tested on: SF-539 CNS
NCI/ADR-RES ovarian = tested on: NCI/ADR-RES ovarian

SMILES | TGI (SW-620 colon) | TGI (OVCAR-8 ovarian) | TGI (HCT-15 colon) | TGI (786-0 renal) | TGI (RXF 393 renal) | TGI (MOLT-4 leukemia) | TGI (K-562 leukemia) | TGI (HOP-62 NSCLC) | TGI (SF-539 CNS) | TGI (NCI/ADR-RES ovarian) | GI50 (OVCAR-8 ovarian) | GI50 (HCT-15 colon) | GI50 (MOLT-4 leukemia) | GI50 (K-562 leukemia)
COc1ccccc1C1C(Cl)C(=O)N1n1cnc2ccccc2c1=O (centres undefined) | > 100 µM | > 100 µM | > 100 µM | > 100 µM | > 100 µM | > 100 µM | > 100 µM | > 100 µM | – | – | – | – | – | –
O=C(CC(CC(=O)Oc1c(Br)cc(Br)cc1C(=O)O)C(=O)Oc1c(Br)cc(Br)cc1C(=O)O)Oc1c(Br)cc(Br)cc1C(=O)O | > 100 µM | 99.6 µM | > 100 µM | > 100 µM | – | > 100 µM | > 100 µM | > 100 µM | > 100 µM | – | – | – | – | –
O=C(NC(Cl)(C(F)(F)F)C(F)(F)F)c1ccc(F)cc1 | > 100 µM | > 100 µM | > 100 µM | > 100 µM | > 100 µM | > 100 µM | > 100 µM | > 100 µM | > 100 µM | > 100 µM | – | – | – | –
C=C(C)C(=O)O[C@H]1CC2=C[C@@H](C[C@@]3(C)O[C@@H]3[C@H]3OC(=O)C(=C)[C@@H]31)OC2=O | 1.94 µM | 0.707 µM | 2.72 µM | – | 1.16 µM | 12.8 µM | 47.6 µM | 98.9 µM | 8.21 µM | 5.18 µM | 0.406 µM | 0.773 µM | 0.789 µM | 1.21 µM
CCOP(=O)(C=C=C1CCC2[C@@H]3CCc4cc(OC)ccc4C3CC[C@]12C)OCC (some centres undefined) | 29.2 µM | 29.3 µM | 24.8 µM | 25.3 µM | 14.8 µM | – | 10.7 µM | 30 µM | 29 µM | 24.2 µM | – | – | – | –
CC(C)C1OC(N)=C(C#N)C1(C#N)C#N (centres undefined) | > 100 µM | > 100 µM | – | > 100 µM | > 100 µM | – | > 100 µM | > 100 µM | > 100 µM | > 100 µM | – | – | – | –
CC(C)(C)OC(=O)N[C@H]1CC(O)c2ccccc2N(CC(=O)O)C1=O (some centres undefined) | > 100 µM | > 100 µM | > 100 µM | > 100 µM | > 100 µM | > 100 µM | – | > 100 µM | > 100 µM | – | – | – | – | –
Cc1nc2c(c(=O)[nH]1)S/C(=C(/C#N)c1nc3ccccc3[nH]1)N2c1ccccc1 | > 100 µM | > 100 µM | > 100 µM | – | > 100 µM | > 100 µM | > 100 µM | > 100 µM | > 100 µM | – | – | – | – | –
Nc1ccccc1Nc1ccccc1C(=O)[O-].Nc1ccccc1Nc1ccccc1C(=O)[O-].[Zn+2] | > 100 µM | > 100 µM | > 100 µM | > 100 µM | – | > 100 µM | > 100 µM | > 100 µM | > 100 µM | – | – | – | – | –
CCN1CCCC(C#N)(c2ccccc2)CC1 (centres undefined) | > 100 µM | > 100 µM | > 100 µM | > 100 µM | > 100 µM | > 100 µM | > 100 µM | > 100 µM | – | > 100 µM | – | – | – | –
CC(=O)OCC(C)C1=C(OC(C)=O)C(=O)C2(C)C/C=C(/C)CC/C=C(\C)CCC(OC(C)=O)C(C)CCC12 (centres undefined) | 40.7 µM | 44.9 µM | 34 µM | 28.1 µM | – | 27.9 µM | 33.4 µM | 27.5 µM | 38.7 µM | – | – | – | – | –
NC(=S)N/N=C/c1nccc2ccccc12 | > 100 µM | > 100 µM | > 100 µM | – | 0.902 µM | > 100 µM | > 100 µM | > 100 µM | 9.11 µM | – | – | – | – | –
Clc1c(Cl)c(Cl)c2c(nnn2C2CCCO2)c1Cl (centres undefined) | – | > 100 µM | 67 µM | > 100 µM | > 100 µM | 46.3 µM | 48.7 µM | > 100 µM | > 100 µM | > 100 µM | – | – | – | –
NC(=O)C(=O)c1ncn(Cc2ccccc2)c1N | > 100 µM | > 100 µM | > 100 µM | > 100 µM | > 100 µM | – | > 100 µM | > 100 µM | > 100 µM | > 100 µM | – | – | – | –
CC(=O)OC1CC2CCN3C(=O)c4cc5c(cc4[C@H](C1OC(C)=O)C23)OCO5 (some centres undefined) | > 100 µM | > 100 µM | > 100 µM | > 100 µM | > 100 µM | > 100 µM | > 100 µM | > 100 µM | > 100 µM | – | – | – | – | –
NC1=NC2=c3ccccc3=C(c3cnccn3)C2(c2cnccn2)c2ccccc21 (centres undefined) | > 100 µM | > 100 µM | > 100 µM | > 100 µM | > 100 µM | 95.8 µM | > 100 µM | > 100 µM | > 100 µM | – | – | – | – | –
COC(=O)[C@H](Cc1ccccc1)NC(=O)/C(=C/C(C)C)NC(=O)[C@H](CCSC)NC=O | > 100 µM | > 100 µM | > 100 µM | > 100 µM | > 100 µM | > 100 µM | > 100 µM | > 100 µM | > 100 µM | – | – | – | – | –
CCOP(=O)(OCC)C(C)(C)N(C)/C(F)=N/C(F)(F)F | > 100 µM | > 100 µM | > 100 µM | > 100 µM | – | > 100 µM | > 100 µM | > 100 µM | > 100 µM | > 100 µM | – | – | – | –
